{"source": "patent US20250145594A1", "about": "“MODULATORS OF THE INTEGRATED STRESS PATHWAY” (Calico Life Sciences LLC, priority 2020, published 2025)", "note": "pEC50: −log10 of the molar value.", "data": [{"test_system": "ATF4 luciferase reporter in HEK293T cells", "test": "ATF4-Luc assay (in vitro model of VWMD)", "format": "cell-based, human", "conditions": "HEK293T cells carrying the ATF4 luciferase reporter, 1 μg/mL tunicamycin, 7 hours, One Glo luminescence", "in_short": "(§1)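 Tunicamycin (1 μg/mL) stress with co-added compound for 7 hours in HEK293T cells stably carrying an ATF4 5′-UTR–luciferase reporter. EC50 values come from the luminescent signal (One Glo).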", "values": [{"compound": "O=C(COc1ccc(Cl)c(F)c1)NC12CC(n3cc(OCCCOC(F)(F)F)cn3)(C1)C2", "note": "[Compound 607, 2-(4-chloro-3-fluorophenoxy)-N-(3-{4-[3-(trifluoromethoxy)propoxy]-1H-pyrazol-1-yl}bicyclo[1.1.1]pentan-1-yl)acetamide]", "pEC50": "> 8.00"}]}, {"test_system": "ATF4 luciferase reporter in HEK293T cells", "test": "ATF4-Luc assay (in vitro model of VWMD)", "format": "cell-based, human", "conditions": "Homo sapiens, HEK-293T, 7 h, HEK293T cells carrying the ATF4 luciferase reporter, 1 μg/mL tunicamycin, One Glo luminescence", "in_short": "as §1", "values": [{"compound": "COCCOc1cnn(C23CC(NC(=O)[C@H]4C[C@@H](O)c5cc(Cl)ccc5O4)(C2)C3)c1", "note": "[Compound 426, (2R,4R)-6-chloro-4-hydroxy-N-{3-[4-(2-methoxyethoxy)-1H-pyrazol-1-yl]bicyclo[1.1.1]pentan-1-yl}-3,4-dihydro-2H-1-benzopyran-2-carboxamide]", "pEC50": "6.30 to 6.60"}, {"compound": "O=C(COc1ccc(Cl)c(F)c1)N[C@H]1C[C@H]2O[C@@H]1CC2c1nnc([C@H]2C[C@@H](OC(F)(F)F)C2)o1", "note": "(mixture of isomers) [Compound 168, 2-(4-chloro-3-fluorophenoxy)-N-[rac-(1R,2S,4R,5S)-5-{5-[cis-3-(trifluoromethoxy)cyclobutyl]-1,3,4-oxadiazol-2-yl}-7-oxabicyclo[2.2.1]heptan-2-yl]acetamide]", "pEC50": "6.30 to 6.60"}, {"compound": "O=C(CO[C@H]1C[C@@H](OC(F)(F)F)C1)NC12CC(NC(=O)[C@H]3CC(O)c4cc(Cl)ccc4O3)(C1)C2", "note": "(single isomer, unassigned) [Compound 293]", "pEC50": "> 8.00"}, {"compound": "O=C(N[C@H]1CC[C@H](n2cc(OCCCC(F)(F)F)cn2)CC1)[C@H]1C[C@@H](O)c2cc(Cl)c(F)cc2O1", "note": "[Compound 527, (2R,4R)-6-chloro-7-fluoro-4-hydroxy-N-((1r,4R)-4-[4-(4,4,4-trifluorobutoxy)-1H-pyrazol-1-yl]cyclohexyl)-3,4-dihydro-2H-1-benzopyran-2-carboxamide]", "pEC50": "> 8.00"}, {"compound": "O=C(COc1ccc(Cl)c(F)c1)NC12CC(c3ccc(C(=O)N4CC(OCC(F)(F)F)C4)nc3)(C1)C2", "note": "[Compound 601, 2-(4-chloro-3-fluorophenoxy)-N-(3-{6-[3-(2,2,2-trifluoroethoxy)azetidine-1-carbonyl]pyridin-3-yl}bicyclo[1.1.1]pentan-1-yl)acetamide]", "pEC50": "7.30 to 8.00"}, {"compound": "O=C(NC12CC(n3cc(COCCOC(F)(F)F)nn3)(C1)C2)[C@H]1C[C@@H](O)c2cc(Cl)ccc2O1", "note": "[Compound 522, (2R,4R)-6-chloro-4-hydroxy-N-[3-(4-{[2-(trifluoromethoxy)ethoxy]methyl}-1H-1,2,3-triazol-1-yl)bicyclo[1.1.1]pentan-1-yl]-3,4-dihydro-2H-1-benzopyran-2-carboxamide]", "pEC50": "> 8.00"}, {"compound": "O=C(CO[C@H]1C[C@@H](OC(F)(F)F)C1)NC12CC(NC(=O)[C@H]3C[C@H](O)c4cc(Cl)c(F)cc4O3)(C1)C2", "note": "[Compound 496, (2R,4S)-6-chloro-7-fluoro-4-hydroxy-N-[3-(2-{[(1s,3S)-3-(trifluoromethoxy)cyclobutyl]oxy}acetamido)bicyclo[1.1.1]pentan-1-yl]-3,4-dihydro-2H-1-benzopyran-2-carboxamide]", "pEC50": "> 8.00"}, {"compound": "CN(CCCOC(F)(F)F)c1cnn(C23CC(NC(=O)[C@H]4C[C@@H](O)c5cc(Cl)ccc5O4)(C2)C3)c1", "note": "[Compound 430, (2R,4R)-6-chloro-4-hydroxy-N-[3-(4-{methyl[3-(trifluoromethoxy)propyl]amino}-1H-pyrazol-1-yl)bicyclo[1.1.1]pentan-1-yl]-3,4-dihydro-2H-1-benzopyran-2-carboxamide]", "pEC50": "7.30 to 8.00"}, {"compound": "O=C(COc1ccc(Cl)c(F)c1)NC12CC(n3cc([C@H]4C[C@@H](OC(F)(F)F)C4)nn3)(C1)C2", "note": "[Compound 620, 2-(4-chloro-3-fluorophenoxy)-N-(3-{4-[(1s,3s)-3-(trifluoromethoxy)cyclobutyl]-1H-1,2,3-triazol-1-yl}bicyclo[1.1.1]pentan-1-yl)acetamide]", "pEC50": "> 8.00"}, {"compound": "COc1ccc2nn(C34CC(NC(=O)C5CNc6cc(C(F)(F)F)c(F)cc6O5)(C3)C4)cc2n1", "note": "(centres unmarked) [Compound 654, 7-fluoro-N-[3-(5-methoxy-2H-pyrazolo[4,3-b]pyridin-2-yl)bicyclo[1.1.1]pentan-1-yl]-6-(trifluoromethyl)-3,4-dihydro-2H-1,4-benzoxazine-2-carboxamide]", "pEC50": "7.30 to 8.00"}]}]}
